Measured values reported in patent publication US20260083767A1, “SOLID DOSAGE FORM OF A SMALL MOLECULE ANTIVIRAL AND USES THEREOF” (Merck Sharp & Dohme LLC, priority 2022, published 2026).
Read-outs that look alike come from different tables or passages of the source.

Assays:
[1] = Aqueous solubility and wettability of Compound A; assay type: physicochemical
Excerpt: As the levels of Compound A increases in the formulation, the flow properties of the pre-roller compaction powder blend worsens due to the cohesive nature of the material. […] As the levels of Compound A increases in the formulation, the property of the powder blend is dominated by the properties of Compound A, resulting in poor wettability, dispersibility and uniformity in water. Accordingly, the proportion of Compound A in the formulations having desirable properties is limited.

[2] = species not stated; cited from earlier work
[3] = non-human primates; cited from earlier work

aqueous solubility [1] | wettability in aqueous media ([1]; aqueous media) | SMILES | oral bioavailability [2] | oral bioavailability [3]
good | poor | CC(C)C(=O)OC[C@H]1O[C@@H](n2ccc(NO)nc2=O)[C@H](O)[C@@H]1O [Compound A, {(2R,3S,4R,5R)-3,4-dihydroxy-5-[4-(hydroxyimino)-2-oxo-3,4-dihydropyrimidin-1 (2H)-yl]oxolan-2-yl}methyl 2-methylpropanoate] | orally bioavailable | 
 |  | O=c1nc(NO)ccn1[C@@H]1O[C@H](CO)[C@@H](O)[C@H]1O [NHC, 1-((2R,3R,4S,5R)-3,4-dihydroxy-5-(hydroxymethyl)tetrahydrofuran-2-yl)-4-(hydroxyamino)pyrimidin-2 (1H)-one] |  | limited
